Patent US6217866A, “Monoclonal antibodies specific to human epidermal growth factor receptor and therapeutic methods employing same” (Rhone-Poulenc Rorer International (Holdings), Inc., priority 1995, dated 2001)

Columns and labels:
[1] = tested on: EGF receptors exposed on KB cells; assay: competitive radioimmunoassay with 125I 108 monoclonal antibody on KB cells; assay type: binding, human
Method: The cells were then washed, solubilized in 0.5N NaOH and their radioactivity was determined in a counter (Kontron, Switzerland). Non-specific binding was determined by the addition of 100-fold excess of unlabelled monoclonal antibody.

KB cells = assay: colony inhibition assay of KB cells; assay type: cell-based, human
Method: KB cells were seeded in petri dishes (50×15 mm^2, NUNC) at a concentration of 2×10^2 cells per dish. […] On the sixth day cultures were fed with fresh medium containing the above ingredients. On the 15th day the cultures were washed with PBS, fixed with 4% v/v formaldehyde in PBS for 15 min. and stained with hematoxylin. Number of formed colonies (25 cells) was then determined.

## epidermal growth factor [EGF]
[1]
  maximal level of competition with binding of the antibody to the receptor: about 70%
KB cells; EGF
  size of KB cell colonies: increase in the size of KB cell colonies
KB cells; EGF 160 nM, 15 days after seeding
  number of colonies compared to cells incubated in absence of growth factor: 150%
